Test results reported in ChEMBL document CHEMBL5331050, “Spiro[benzoxazine-piperidin]-one derivatives as chitin synthase inhibitors and antifungal agents: Design, synthesis and biological evaluation” (Eur J Med Chem, 2022).
Converted amounts (≈) assume the structure as drawn.

Assays:
Candida albicans [1] = assay: Antifungal activity against Candida albicans ATCC 76615 assessed as disruption of fungal wall by measuring fungal growth incubated for 24 hrs in the presence of sorbitol; type: functional
Aspergillus flavus [2] = assay: Antifungal activity against Aspergillus flavus ATCC 16870 assessed as fungal growth inhibition incubated for 24 hrs by CLSI protocol based broth microdilution method; type: functional
Cryptococcus neoformans [3] = assay: Antifungal activity against fluconazole-resistant Cryptococcus neoformans ATCC 208821R assessed as fungal growth inhibition; type: functional
Candida albicans [4] = assay: Antifungal activity against Candida albicans ATCC 76615 assessed as fungal growth inhibition incubated for 24 hrs by CLSI protocol based broth microdilution method; type: functional
Candida albicans [5] = assay: Antifungal activity against micafungin-resistant Candida albicans ATCC 76615R assessed as fungal growth inhibition; type: functional
[6] = Selectivity ratio of MIC for antifungal activity against Candida albicans ATCC 76615 assessed as disruption of fungal wall by measuring fungal growth incubated for 24 hrs in the presence of sorbitol to MIC for antifungal activity against Candida albicans ATCC 76615 assessed as fungal growth inhibition; type: functional
Cryptococcus neoformans [7] = assay: Antifungal activity against Cryptococcus neoformans ATCC 208821 assessed as disruption of fungal wall by measuring fungal growth incubated for 24 hrs in the presence of sorbitol; type: functional
Aspergillus fumigatus [8] = assay: Antifungal activity against Aspergillus fumigatus GIMCC 3.19 assessed as fungal growth inhibition incubated for 24 hrs by CLSI protocol based broth microdilution method; type: functional
[9] = Inhibition of Candida tropicalis ATCC 750 chitin synthase using UDP-GlcNAc as substrate incubated for 1 hrs by absorbance based assay
Candida tropicalis = assay: Inhibition of Candida tropicalis ATCC 750 chitin synthase using UDP-GlcNAc as substrate at 300 ug/ml incubated for 1 hrs by absorbance based assay relative to control; conditions: dose 300.0 µg/ml
Cryptococcus neoformans [10] = assay: Antifungal activity against Cryptococcus neoformans ATCC 208821 assessed as fungal growth inhibition incubated for 24 hrs by CLSI protocol based broth microdilution method; type: functional
Candida albicans [11] = assay: Antifungal activity against fluconazole-resistant Candida albicans ATCC 76615R assessed as fungal growth inhibition; type: functional
[12] = Inhibition of chitin synthase (unknown origin); set-up: species or system Fungi
Candida albicans [13] = assay: Synergistic antifungal activity against Candida albicans ATCC 76615 assessed as fractional inhibitory concentration index incubated for 24 hrs in the presence of fluconazole by broth dilution based checkerboard method; type: functional
Aspergillus flavus [14] = assay: Antifungal activity against Aspergillus flavus ATCC 16870 assessed as disruption of fungal wall by measuring fungal growth incubated for 24 hrs in the presence of sorbitol; type: functional
Aspergillus flavus [15] = assay: Synergistic antifungal activity against Aspergillus flavus ATCC 16870 assessed as fractional inhibitory concentration index incubated for 24 hrs in the presence of fluconazole by broth dilution based checkerboard method; type: functional
Aspergillus fumigatus [16] = assay: Antifungal activity against Aspergillus fumigatus GIMCC 3.19 assessed as disruption of fungal wall by measuring fungal growth incubated for 24 hrs in the presence of sorbitol; type: functional
Cryptococcus neoformans [17] = assay: Synergistic antifungal activity against Cryptococcus neoformans ATCC 208821 assessed as fractional inhibitory concentration index incubated for 24 hrs in the presence of fluconazole by broth dilution based checkerboard method; type: functional
Aspergillus flavus [18] = assay: Synergistic antifungal activity against Aspergillus flavus ATCC 16870 assessed as fungal growth inhibition incubated for 24 hrs in the presence of fluconazole by broth dilution based checkerboard method; type: functional
Aspergillus fumigatus [19] = assay: Synergistic antifungal activity against Aspergillus fumigatus GIMCC 3.19 assessed as fungal growth inhibition incubated for 24 hrs in the presence of fluconazole by broth dilution based checkerboard method; type: functional
Aspergillus fumigatus [20] = assay: Synergistic antifungal activity against Aspergillus fumigatus GIMCC 3.19 assessed as fractional inhibitory concentration index incubated for 24 hrs in the presence of fluconazole by broth dilution based checkerboard method; type: functional
Candida albicans [21] = assay: Synergistic antifungal activity against Candida albicans ATCC 76615 assessed as fungal growth inhibition incubated for 24 hrs in the presence of fluconazole by broth dilution based checkerboard method; type: functional
Cryptococcus neoformans [22] = assay: Synergistic antifungal activity against Cryptococcus neoformans ATCC 208821 assessed as fungal growth inhibition incubated for 24 hrs in the presence of fluconazole by broth dilution based checkerboard method; type: functional

## COc1cc(Br)c(NC(=O)/C=C/C(=O)N2CCC3(CC2)OC(=O)Nc2ccc(OC)cc23)c(Br)c1
Candida albicans [1]
  MIC: 512 µg/mL
Aspergillus flavus [2]
  MIC: 256 µg/mL (≈ 420 µM)
Cryptococcus neoformans [3]
  MIC: 64 µg/mL (≈ 105 µM)
Candida albicans [4]
  MIC: 64 µg/mL (≈ 105 µM)
Candida albicans [5]
  MIC: 64 µg/mL (≈ 105 µM)
[6]
  Ratio: 8
Cryptococcus neoformans [7]
  MIC: 512 µg/mL
Aspergillus fumigatus [8]
  MIC: 128 µg/mL (≈ 210 µM)
[9]
  IC50: 110 µM
Candida tropicalis
  inhibition: 72%
Cryptococcus neoformans [10]
  MIC: 64 µg/mL (≈ 105 µM)
Candida albicans [11]
  MIC: 64 µg/mL (≈ 105 µM)

## O=C(/C=C/C(=O)N1CCCC12Cc1ccccc1NC2=O)Nc1cccc([N+](=O)[O-])c1 (stereo not given)
[12]
  IC50: 100 µM

## COc1ccc2c(c1)C1(CCN(C(=O)/C=C/C(=O)Nc3ccc([N+](=O)[O-])cc3OC)CC1)OC(=O)N2
Candida albicans [13]
  fractional inhibitory concentration index (FICI): 1.13
Aspergillus flavus [2]
  MIC: 42.7 µg/mL (≈ 85.9 µM)
Aspergillus flavus [14]
  MIC: > 512 µg/mL
Candida albicans [4]
  MIC: 128 µg/mL (≈ 258 µM)
Aspergillus flavus [15]
  fractional inhibitory concentration index (FICI): 1.37
Aspergillus fumigatus [16]
  MIC: 512 µg/mL
Cryptococcus neoformans [7]
  MIC: > 512 µg/mL
Cryptococcus neoformans [17]
  fractional inhibitory concentration index (FICI): 1
Aspergillus flavus [18]
  MIC: 16 µg/mL
Aspergillus fumigatus [19]
  MIC: 32 µg/mL
Aspergillus fumigatus [20]
  fractional inhibitory concentration index (FICI): 1.5
Aspergillus fumigatus [8]
  MIC: 64 µg/mL (≈ 129 µM)
[9]
  IC50: 100 µM
Candida albicans [21]
  MIC: 16 µg/mL
Candida tropicalis
  inhibition: 86%
Cryptococcus neoformans [10]
  MIC: 64 µg/mL (≈ 129 µM)
Cryptococcus neoformans [22]
  MIC: 32 µg/mL
